Tests used:
[1] = target: T1, IDH1 (isocitrate dehydrogenase 1) (Homo sapiens, UniProt O75874); assay: 1H NMR of cofactor released by thermal denaturation; native MS; electrochemical retention; format: binding; details: copurified; resting state, no substrate; part of a NADP+/NADPH mixture
T1 construct: recombinant, purified; copurifies with NADP(H)

[2] = target: T2, IDH1 (isocitrate dehydrogenase 1) (Homo sapiens, UniProt O75874, R132H); assay: non-denaturing mass spectrometry; 1H NMR after denaturation; format: binding; details: copurified; NMR identifies NADPH only; resting state, no substrate
T2 construct: recombinant, purified; copurifies with NADP(H)

[3] = target: T2, IDH1 (isocitrate dehydrogenase 1); assay: electrochemical retention after buffer exchange and potential switch; format: biochemical; details: nanoconfined with FNR; resting state; binds much less tightly than NADPH; pH 8, 10 mM MgCl2
[4] = target: T3, Ferredoxin NADP+ reductase (FNR) (Chlamydomonas reinhardtii, UniProt P53991); assay: 1H NMR of cofactor released by denaturation; format: binding; details: prosthetic group
T3 construct: gene PETH; recombinant, purified; 39 kDa; FAD flavoprotein
T3 sequence (P53991 36-354): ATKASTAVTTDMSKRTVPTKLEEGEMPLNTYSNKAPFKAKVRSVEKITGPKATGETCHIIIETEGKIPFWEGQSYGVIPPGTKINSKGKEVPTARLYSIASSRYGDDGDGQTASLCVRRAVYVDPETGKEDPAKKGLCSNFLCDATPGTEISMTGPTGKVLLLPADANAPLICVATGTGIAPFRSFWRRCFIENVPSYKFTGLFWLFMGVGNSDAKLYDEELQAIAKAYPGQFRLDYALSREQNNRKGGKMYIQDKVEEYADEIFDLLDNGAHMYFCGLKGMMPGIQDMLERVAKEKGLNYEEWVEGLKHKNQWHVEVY

T2 sequence (O75874 whole entry R132H): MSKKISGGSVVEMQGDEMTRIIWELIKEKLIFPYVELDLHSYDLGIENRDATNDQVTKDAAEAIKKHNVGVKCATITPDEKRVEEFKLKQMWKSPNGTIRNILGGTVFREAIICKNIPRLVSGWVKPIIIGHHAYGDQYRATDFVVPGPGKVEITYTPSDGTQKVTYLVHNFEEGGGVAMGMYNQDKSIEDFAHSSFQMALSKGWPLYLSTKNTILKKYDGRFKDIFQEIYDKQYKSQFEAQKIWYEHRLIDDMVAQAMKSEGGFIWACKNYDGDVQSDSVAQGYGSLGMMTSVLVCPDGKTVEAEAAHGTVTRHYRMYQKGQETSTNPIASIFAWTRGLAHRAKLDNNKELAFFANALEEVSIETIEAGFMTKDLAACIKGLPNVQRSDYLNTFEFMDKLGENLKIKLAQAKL
T1 sequence (O75874 whole entry): as the sequence (O75874 whole entry R132H) above, with H132R counted along it

| SMILES | 1H NMR of cofactor released by thermal denaturation; native MS; electrochemical [1] | NADP(H) active site occupancy [2] | electrochemical retention after buffer exchange and potential switch [3] | 1H NMR of cofactor released by denaturation [4] |
| --- | --- | --- | --- | --- |
| NC(=O)C1=CN([C@@H]2O[C@H](COP(=O)(O)OP(=O)(O)OC[C@H]3O[C@@H](n4cnc5c(N)ncnc54)[C@H](OP(=O)(O)O)[C@@H]3O)[C@@H](O)[C@H]2O)C=CC1 [NADPH] | wild-type IDH1 (Fig. 1A) copurified with a mixture of NADP^+ and NADPH bound | ~ 97.5% | – | – |
| NC(=O)c1ccc[n+]([C@@H]2O[C@H](COP(=O)(O)OP(=O)(O)OC[C@H]3O[C@@H](n4cnc5c(N)ncnc54)[C@H](OP(=O)(O)O)[C@@H]3O)[C@@H](O)[C@H]2O)c1 [NADP^+] | wild-type IDH1 (Fig. 1A) copurified with a mixture of NADP^+ and NADPH bound | – | IDH1 R132H binds NADP^+ much less tightly than NADPH | – |
| Cc1cc2nc3c(=O)[nH]c(=O)nc-3n(C[C@H](O)[C@H](O)[C@H](O)COP(=O)(O)OP(=O)(O)OC[C@H]3O[C@@H](n4cnc5c(N)ncnc54)[C@H](O)[C@@H]3O)c2cc1C [flavin adenine dinucleotide] | – | – | – | release of its prosthetic group, flavin adenine dinucleotide (FAD), upon denaturation |
